Test results reported in ChEMBL document CHEMBL3091456, “Chemical Probe Identification Platform for Orphan GPCRs Using Focused Compound Screening: GPR39 as a Case Example” (ACS Med Chem Lett, 2013).
Calls of active or inactive are those of the source. No cut-off for these calls is given here.

What was measured:
[1] = target: T1, G-protein coupled receptor 39 (Homo sapiens) (UniProt O43194); assay: Agonist activity at GPR39 in human HT-29 cells assessed as cAMP accumulation up to 30 uM; assay type: functional, cell-based
T1 sequence (whole entry): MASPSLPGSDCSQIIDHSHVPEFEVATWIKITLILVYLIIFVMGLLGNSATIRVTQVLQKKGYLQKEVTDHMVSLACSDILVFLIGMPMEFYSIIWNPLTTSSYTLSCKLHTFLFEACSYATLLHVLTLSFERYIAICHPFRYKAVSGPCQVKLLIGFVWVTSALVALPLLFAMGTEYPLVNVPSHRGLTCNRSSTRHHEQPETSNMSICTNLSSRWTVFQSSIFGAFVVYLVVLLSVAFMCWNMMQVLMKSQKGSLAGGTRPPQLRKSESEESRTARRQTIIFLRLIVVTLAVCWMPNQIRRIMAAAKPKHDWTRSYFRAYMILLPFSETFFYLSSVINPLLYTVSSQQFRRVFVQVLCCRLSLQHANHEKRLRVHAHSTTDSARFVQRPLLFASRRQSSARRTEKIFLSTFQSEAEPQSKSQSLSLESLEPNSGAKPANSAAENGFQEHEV

[2] = target: T1, G-protein coupled receptor 39 (Homo sapiens); assay: Agonist activity at GPR39 in human HT-29 cells assessed as intracellular Ca2+ mobilization up to 30 uM after 72 hrs by FLIPR assay; assay type: functional, cell-based
[3] = target: T1, G-protein coupled receptor 39 (Homo sapiens); assay: Agonist activity at recombinant human GPR39 expressed in CHO-K1 cells assessed as increase of Zn2+-induced cAMP production preincubated for 30 mins measured after 60 mins relative to Zn+2; assay type: functional, cell-based
[4] = target: T1, G-protein coupled receptor 39 (Homo sapiens); assay: Agonist activity at recombinant human GPR39 expressed in CHO-K1 cells assessed as increase of Zn2+-induced intracellular Ca+2 mobilization after 1 hr by Fluo-4 No staining-based FLIPR assay relative to Zn+2; assay type: cell-based
[5] = Apparent permeability of the compound; assay type: physicochemical; details: not told
[6] = target: T2, G-protein coupled receptor 39 (Homo sapiens, UniProt O43194); assay: Agonist activity at recombinant human GPR39 expressed in CHO-K1 cells assessed as increase of Zn2+-induced cAMP production preincubated for 30 mins measured after 60 mins; assay type: functional, cell-based
T2 sequence (O43194 whole entry): T1 sequence (whole entry)

[7] = target: T2, G-protein coupled receptor 39; assay: Agonist activity at recombinant human GPR39 expressed in CHO-K1 cells assessed as increase of Zn2+-induced intracellular Ca+2 mobilization after 1 hr by Fluo-4 No staining-based FLIPR assay; assay type: cell-based
[8] = target: T3, Protein Gpr39 (Rattus norvegicus) (UniProt A6QR73); assay: Agonist activity at GPR39 in rat INS-1 cells assessed as effect on glucose-stimulated insulin secretion; assay type: cell-based; details: INS1
T3 sequence (whole entry): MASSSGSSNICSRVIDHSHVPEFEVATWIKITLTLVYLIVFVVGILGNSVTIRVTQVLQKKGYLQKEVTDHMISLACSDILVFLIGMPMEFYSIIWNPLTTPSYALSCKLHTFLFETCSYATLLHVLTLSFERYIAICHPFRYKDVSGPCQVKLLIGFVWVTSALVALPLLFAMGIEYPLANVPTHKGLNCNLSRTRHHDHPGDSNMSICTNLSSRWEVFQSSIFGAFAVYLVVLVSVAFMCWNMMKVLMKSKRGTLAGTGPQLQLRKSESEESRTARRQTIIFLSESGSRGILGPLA

[9] = target: T1, G-protein coupled receptor 39 (Homo sapiens); assay: Agonist activity at GPR39 in human islets assessed as 11.2 mM glucose-stimulated insulin secretion up to 10 uM after 1 hr
[10] = target: T1, G-protein coupled receptor 39 (Homo sapiens); assay: Agonist activity at GPR39 in human islets assessed as 2.8 mM glucose-stimulated insulin secretion up to 10 uM after 0.75 hrs
[11] = target: T1, G-protein coupled receptor 39 (Homo sapiens); assay: Agonist activity at GPR39 in human HT-29 cells assessed as cAMP accumulation; assay type: functional, cell-based
[12] = target: T1, G-protein coupled receptor 39 (Homo sapiens); assay: Agonist activity at GPR39 in human HT-29 cells assessed as intracellular Ca2+ mobilization after 72 hrs by FLIPR assay in presence of siRNA; assay type: functional, cell-based
[13] = target: T2, G-protein coupled receptor 39; assay: Agonist activity at GPR39 in human HT-29 cells assessed as increase in intracellular Ca2+ mobilization after 72 hrs by FLIPR assay; assay type: functional, cell-based
[14] = target: cGMP-inhibited 3',5'-cyclic phosphodiesterase 3B (Homo sapiens, UniProt Q13370); assay: Inhibition of PDE3B (unknown origin)
[15] = target: cGMP-inhibited 3',5'-cyclic phosphodiesterase 3A (Homo sapiens, UniProt Q14432); assay: Inhibition of PDE3a (unknown origin)
[16] = Apparent permeability across MDCK cells; assay type: ADME, cell-based, Canis lupus familiaris; details: dog

Chain of cGMP-inhibited 3',5'-cyclic phosphodiesterase 3B (Q13370 whole entry): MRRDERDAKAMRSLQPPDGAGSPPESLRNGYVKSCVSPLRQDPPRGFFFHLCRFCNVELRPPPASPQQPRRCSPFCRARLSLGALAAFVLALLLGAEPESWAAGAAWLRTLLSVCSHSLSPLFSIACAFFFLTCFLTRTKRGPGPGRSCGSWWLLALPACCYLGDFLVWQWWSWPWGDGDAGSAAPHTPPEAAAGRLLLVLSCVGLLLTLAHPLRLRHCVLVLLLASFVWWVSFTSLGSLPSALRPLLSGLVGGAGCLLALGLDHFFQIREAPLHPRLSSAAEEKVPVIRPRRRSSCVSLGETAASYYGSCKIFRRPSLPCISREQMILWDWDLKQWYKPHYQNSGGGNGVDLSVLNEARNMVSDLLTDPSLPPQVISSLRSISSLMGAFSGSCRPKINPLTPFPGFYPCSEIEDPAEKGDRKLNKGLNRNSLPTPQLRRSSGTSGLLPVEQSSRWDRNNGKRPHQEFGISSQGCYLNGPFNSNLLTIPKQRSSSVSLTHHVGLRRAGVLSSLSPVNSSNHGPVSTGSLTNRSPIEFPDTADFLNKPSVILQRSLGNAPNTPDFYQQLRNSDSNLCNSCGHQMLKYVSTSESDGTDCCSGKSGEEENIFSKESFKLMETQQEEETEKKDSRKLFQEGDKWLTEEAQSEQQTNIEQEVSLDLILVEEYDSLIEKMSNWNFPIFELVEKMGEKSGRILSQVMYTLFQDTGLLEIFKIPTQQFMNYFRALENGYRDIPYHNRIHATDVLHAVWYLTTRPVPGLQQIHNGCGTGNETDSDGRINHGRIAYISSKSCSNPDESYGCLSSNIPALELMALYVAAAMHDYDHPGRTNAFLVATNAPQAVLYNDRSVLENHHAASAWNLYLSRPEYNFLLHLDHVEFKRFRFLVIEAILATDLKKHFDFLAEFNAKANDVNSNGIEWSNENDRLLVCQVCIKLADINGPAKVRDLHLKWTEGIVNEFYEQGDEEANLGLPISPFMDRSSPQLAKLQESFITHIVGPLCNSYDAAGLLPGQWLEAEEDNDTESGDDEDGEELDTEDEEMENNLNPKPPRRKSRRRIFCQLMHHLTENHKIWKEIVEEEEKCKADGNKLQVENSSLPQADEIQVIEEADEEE
Chain of cGMP-inhibited 3',5'-cyclic phosphodiesterase 3A (Q14432 whole entry): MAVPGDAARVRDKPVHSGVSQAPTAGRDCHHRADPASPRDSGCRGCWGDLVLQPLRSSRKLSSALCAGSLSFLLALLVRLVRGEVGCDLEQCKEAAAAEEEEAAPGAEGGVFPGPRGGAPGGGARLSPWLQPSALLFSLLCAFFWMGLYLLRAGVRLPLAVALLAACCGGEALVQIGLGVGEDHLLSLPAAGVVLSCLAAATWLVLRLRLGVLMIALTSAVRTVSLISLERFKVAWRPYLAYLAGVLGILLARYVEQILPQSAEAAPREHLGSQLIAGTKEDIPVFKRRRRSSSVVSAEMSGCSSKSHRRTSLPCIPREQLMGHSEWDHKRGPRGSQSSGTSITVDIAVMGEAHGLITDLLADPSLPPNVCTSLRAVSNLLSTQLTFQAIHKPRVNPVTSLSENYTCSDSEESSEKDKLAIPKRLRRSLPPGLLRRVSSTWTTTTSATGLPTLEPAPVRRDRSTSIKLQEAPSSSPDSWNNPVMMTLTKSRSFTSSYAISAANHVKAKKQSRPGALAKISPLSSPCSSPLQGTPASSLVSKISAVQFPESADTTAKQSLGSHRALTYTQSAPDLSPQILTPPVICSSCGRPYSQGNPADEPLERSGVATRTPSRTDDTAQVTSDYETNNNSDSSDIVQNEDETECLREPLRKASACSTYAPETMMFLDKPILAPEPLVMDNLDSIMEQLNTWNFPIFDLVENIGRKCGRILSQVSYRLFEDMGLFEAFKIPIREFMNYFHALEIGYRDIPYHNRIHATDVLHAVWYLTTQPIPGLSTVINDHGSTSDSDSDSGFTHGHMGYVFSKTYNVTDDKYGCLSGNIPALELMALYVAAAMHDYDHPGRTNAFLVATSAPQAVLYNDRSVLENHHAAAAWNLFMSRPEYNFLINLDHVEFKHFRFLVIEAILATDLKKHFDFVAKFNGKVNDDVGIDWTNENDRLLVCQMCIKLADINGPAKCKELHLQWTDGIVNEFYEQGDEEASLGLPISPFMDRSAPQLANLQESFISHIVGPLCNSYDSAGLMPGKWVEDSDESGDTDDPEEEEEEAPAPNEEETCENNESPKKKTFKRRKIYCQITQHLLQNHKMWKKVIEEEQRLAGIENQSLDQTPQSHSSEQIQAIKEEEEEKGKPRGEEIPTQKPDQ

| SMILES | Activity [1] | Activity [2] | Efficacy [3] [%] | Efficacy [4] [%] | Papp [5] [×10⁻⁶ cm/s] | EC50 [6] [nM] | EC50 [7] [nM] | also measured |
| --- | --- | --- | --- | --- | --- | --- | --- | --- |
| CCc1nc(CN2C[C@@H](C(=O)NCc3ccccc3Cl)[C@H](c3cccnc3)C2)c[nH]1 | inactive | inactive | 99 | 74 | – | – | – | – |
| COc1cccc([C@@H]2CCN(CCc3ccccc3)C[C@H]2C(=O)NCCc2ccccn2)c1 (racemic) | – | – | 107 | 82 | 3.1 | 4500 | 3100 | – |
| N#Cc1ccc(N2CCN(Cc3cn4cc(Cl)ccc4n3)CC2)nc1 | – | – | 100 | 76 | – | 12000 | 56 | Activity [8]: inactive; Activity [9]: inactive; Activity [10]: inactive; Activity [11]: inactive; Activity [12]: inactive; EC50 [13]: 900 nM; IC50 [14]: 24000 nM; IC50 [15]: 15000 nM; Papp [16]: 7.6 ×10⁻⁶ cm/s |

More lines, main results first:

| Activity [1] | Activity [2] | Efficacy [3] [%] | Efficacy [4] [%] | Papp [5] [×10⁻⁶ cm/s] | EC50 [6] [nM] | EC50 [7] [nM] | SMILES | also measured |
| --- | --- | --- | --- | --- | --- | --- | --- | --- |
| – | – | – | – | 1.2 | 310 | 320 | CCc1ncc(CN2C[C@H](C(=O)NCc3ccccc3Cl)[C@@H](c3cccnc3)C2)[nH]1 | – |
| inactive | inactive | 107 | 66 | – | – | – | CCc1nc(CN2C[C@H](C(=O)NCc3ccccc3Cl)[C@@H](c3cccnc3)C2)c[nH]1 | – |
| – | – | – | – | 0.8 | 840 | 190 | CCc1ncc(CN2C[C@@H](C(=O)NCc3ccccc3Cl)[C@H](c3cccnc3)C2)[nH]1 | – |
